Measurements taken from PMC3109985 (Organic letters, 2011).
Read-outs that look alike come from different tables or passages of the source.

Columns and labels:
HIV-1 NL4-3 = experiment: Anti-HIV assay: HIV-1 NL4-3 replication in MT4 cells, p24 ELISA; assay type: cell-based
[1] = Cytotoxicity to MT4 cells, CellTiter-Glo Luminescent Cell Viability Assay; assay type: cell-based; conditions: human
[2] = Human immunodeficiency virus 1, NL43, MT4, 96 h, read-out: anti-HIV (NL4-3) EC90
[3] = read-out: anti-HIV (NL4-3) EC90, concentration that inhibited HIV-1 replication by 90%, MT4 cells, 4-day post infection, p24 ELISA

Molecule | EC90 (HIV-1 NL4-3; [2]) | EC90 (HIV-1 NL4-3; Human immunodeficiency virus 1, NL43, MT4, read-out: anti-HIV EC90) | IC50 [1] | EC90 (HIV-1 NL4-3; [3])
C=C(C)[C@@]12C[C@@H](COC(=O)c3ccccc3)[C@@]34OC5(O[C@@H]1[C@@H]3[C@@H]1O[C@]1(CO)[C@@H](O)[C@@]1(O)[C@H]4[C@H]([C@H](C)[C@@H]1OC(=O)c1ccccc1)[C@H](C)CCCCCC[C@H]5O)O2 [Compound 1, gnidimacrin] | 0.41 nM | < 1 nM | 2800 nM | –
C=C(C)[C@]12C[C@@H](C)[C@@]34OC5(CCCCCCC[C@H](C)[C@H]6[C@H](C)[C@H](OC(=O)c7ccccc7)[C@@](O)([C@H](O)[C@@]7(CO)O[C@H]7[C@H]3[C@H]1O5)[C@@H]64)O2 [Compound 2, pimelea factor P2] | 1.4 nM | – | 3200 nM | –
C=C(C)[C@]12C[C@@H](COC(=O)c3ccccc3)[C@@]34OC5(CCCCCCC[C@@H](C)[C@H]6[C@H](C)C(=O)[C@@](O)([C@H](O)[C@@]7(CO)O[C@H]7[C@H]3[C@H]1O5)[C@@H]64)O2 [Compound 3, wikstroelide F] | – | – | – | 1.7 nM
C=C(C)[C@]12C[C@@H](COC(C)=O)[C@@]34O[C@]5(O[C@@H]1[C@@H]3[C@@H]1O[C@]1(CO)[C@@H](O)[C@@]1(O)[C@H]4[C@H]([C@H](C)[C@@H]1OC(=O)c1ccccc1)[C@H](C)CCCCCC[C@H]5O)O2 [Compound 4, Stelleralide A] | – | – | – | 0.4 nM
C=C(C)[C@]12C[C@@H](COC(=O)c3ccccc3)[C@]34OC5(CCCCCCC[C@H](C)[C@@H]6[C@@H]3[C@]3(O[C@]6(C)OC3=O)[C@H](O)[C@@]3(CO)O[C@H]3[C@H]4[C@H]1O5)O2 [Compound 6, Stelleralide C] | – | – | – | 91 nM
C=C(C)[C@]12C[C@@H](C)[C@@]34O[C@](CCCCCCCCC)(O[C@@H]1[C@@H]3[C@@H]1O[C@]1(CO)[C@@H](O)[C@]1(O)C(=O)C(C)=C[C@H]14)O2 [Compound 7, simplexin] | 8 nM | – | 22500 nM | –
C=C(C)[C@]12C[C@@H](C)[C@@]34O[C@](/C=C/C=C/CCCCCCCCC)(O[C@@H]1[C@@H]3[C@@H]1O[C@]1(CO)[C@@H](O)[C@]1(O)C(=O)C(C)=C[C@H]14)O2 [Compound 8, huratoxin] | – | – | – | 5.8 nM
Stelleralide B [Compound 5] | – | – | – | 1.6 nM
